Experimental data as given in patent publication US12685735B2 (Foghorn Therapeutics Inc., priority 2020, dated 2026).

Experiments:
BRM = BRM (Homo sapiens, UniProt P51531); test: ATPase catalytic activity assay of BRM (ADP-Glo); type: biochemical; conditions: for IC50: read-out: BRM IC50 (μM)*
How it was run: (§1)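 Luminescence from ADP formed by BRM or BRG-1 ATPase was detected after a two-step ADP-Glo workup at room temperature. The first step, removing unconsumed ATP, took 40 min; the second, converting ADP to ATP for luciferase, took 60 min.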

BRG-1 = BRG-1 (Homo sapiens, UniProt P51532); test: ATPase catalytic activity assay of BRG-1 (ADP-Glo); type: biochemical; conditions: ATPase catalytic activity, ADP-Glo; for IC50: read-out: BRG1 IC50 (μM)*; for Emax: read-out: BRG1 Max % Inhibition
How it was run: as §1

Chain of BRG-1 (P51532 whole entry): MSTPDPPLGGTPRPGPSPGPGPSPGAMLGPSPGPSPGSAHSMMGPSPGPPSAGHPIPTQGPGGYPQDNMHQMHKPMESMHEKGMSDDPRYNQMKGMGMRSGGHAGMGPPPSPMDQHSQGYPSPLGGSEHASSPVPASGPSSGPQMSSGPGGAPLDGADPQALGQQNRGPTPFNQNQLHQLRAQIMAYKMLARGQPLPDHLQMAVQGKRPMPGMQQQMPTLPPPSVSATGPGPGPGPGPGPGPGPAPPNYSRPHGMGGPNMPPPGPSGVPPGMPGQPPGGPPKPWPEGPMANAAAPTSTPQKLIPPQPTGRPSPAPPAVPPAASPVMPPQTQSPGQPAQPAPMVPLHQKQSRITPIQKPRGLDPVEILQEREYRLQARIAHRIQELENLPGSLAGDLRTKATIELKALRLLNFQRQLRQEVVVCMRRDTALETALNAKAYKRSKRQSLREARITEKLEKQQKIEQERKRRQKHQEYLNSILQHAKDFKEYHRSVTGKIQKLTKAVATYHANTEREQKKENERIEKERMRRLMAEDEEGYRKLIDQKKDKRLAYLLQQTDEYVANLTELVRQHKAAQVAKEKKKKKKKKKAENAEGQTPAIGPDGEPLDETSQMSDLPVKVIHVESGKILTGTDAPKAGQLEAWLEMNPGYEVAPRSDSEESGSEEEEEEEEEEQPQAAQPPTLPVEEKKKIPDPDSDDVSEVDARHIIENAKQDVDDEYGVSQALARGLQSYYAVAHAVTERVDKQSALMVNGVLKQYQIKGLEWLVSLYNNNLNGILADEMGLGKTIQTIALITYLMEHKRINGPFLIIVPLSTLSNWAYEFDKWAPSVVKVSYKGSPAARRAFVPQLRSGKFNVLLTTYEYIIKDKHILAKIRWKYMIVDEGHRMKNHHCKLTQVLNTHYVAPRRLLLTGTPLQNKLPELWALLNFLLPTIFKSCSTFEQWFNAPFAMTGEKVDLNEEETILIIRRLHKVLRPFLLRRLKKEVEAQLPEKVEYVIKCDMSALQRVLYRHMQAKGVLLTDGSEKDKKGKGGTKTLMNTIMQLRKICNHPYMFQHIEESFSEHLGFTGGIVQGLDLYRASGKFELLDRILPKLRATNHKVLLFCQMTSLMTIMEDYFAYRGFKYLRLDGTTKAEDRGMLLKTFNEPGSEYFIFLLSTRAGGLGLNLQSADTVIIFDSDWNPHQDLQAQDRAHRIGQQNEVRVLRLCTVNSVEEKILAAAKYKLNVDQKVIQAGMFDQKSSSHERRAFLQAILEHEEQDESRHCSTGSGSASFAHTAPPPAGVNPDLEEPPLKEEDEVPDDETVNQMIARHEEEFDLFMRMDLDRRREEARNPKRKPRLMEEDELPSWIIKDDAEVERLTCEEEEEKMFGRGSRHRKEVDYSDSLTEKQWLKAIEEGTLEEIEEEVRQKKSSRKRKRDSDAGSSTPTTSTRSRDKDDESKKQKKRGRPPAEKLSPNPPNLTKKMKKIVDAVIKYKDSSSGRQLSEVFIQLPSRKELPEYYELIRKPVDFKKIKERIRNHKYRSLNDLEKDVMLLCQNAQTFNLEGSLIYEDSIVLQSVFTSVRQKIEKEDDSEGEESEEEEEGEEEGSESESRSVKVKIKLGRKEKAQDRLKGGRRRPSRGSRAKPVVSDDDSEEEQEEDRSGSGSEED
Chain of BRM (P51531 whole entry): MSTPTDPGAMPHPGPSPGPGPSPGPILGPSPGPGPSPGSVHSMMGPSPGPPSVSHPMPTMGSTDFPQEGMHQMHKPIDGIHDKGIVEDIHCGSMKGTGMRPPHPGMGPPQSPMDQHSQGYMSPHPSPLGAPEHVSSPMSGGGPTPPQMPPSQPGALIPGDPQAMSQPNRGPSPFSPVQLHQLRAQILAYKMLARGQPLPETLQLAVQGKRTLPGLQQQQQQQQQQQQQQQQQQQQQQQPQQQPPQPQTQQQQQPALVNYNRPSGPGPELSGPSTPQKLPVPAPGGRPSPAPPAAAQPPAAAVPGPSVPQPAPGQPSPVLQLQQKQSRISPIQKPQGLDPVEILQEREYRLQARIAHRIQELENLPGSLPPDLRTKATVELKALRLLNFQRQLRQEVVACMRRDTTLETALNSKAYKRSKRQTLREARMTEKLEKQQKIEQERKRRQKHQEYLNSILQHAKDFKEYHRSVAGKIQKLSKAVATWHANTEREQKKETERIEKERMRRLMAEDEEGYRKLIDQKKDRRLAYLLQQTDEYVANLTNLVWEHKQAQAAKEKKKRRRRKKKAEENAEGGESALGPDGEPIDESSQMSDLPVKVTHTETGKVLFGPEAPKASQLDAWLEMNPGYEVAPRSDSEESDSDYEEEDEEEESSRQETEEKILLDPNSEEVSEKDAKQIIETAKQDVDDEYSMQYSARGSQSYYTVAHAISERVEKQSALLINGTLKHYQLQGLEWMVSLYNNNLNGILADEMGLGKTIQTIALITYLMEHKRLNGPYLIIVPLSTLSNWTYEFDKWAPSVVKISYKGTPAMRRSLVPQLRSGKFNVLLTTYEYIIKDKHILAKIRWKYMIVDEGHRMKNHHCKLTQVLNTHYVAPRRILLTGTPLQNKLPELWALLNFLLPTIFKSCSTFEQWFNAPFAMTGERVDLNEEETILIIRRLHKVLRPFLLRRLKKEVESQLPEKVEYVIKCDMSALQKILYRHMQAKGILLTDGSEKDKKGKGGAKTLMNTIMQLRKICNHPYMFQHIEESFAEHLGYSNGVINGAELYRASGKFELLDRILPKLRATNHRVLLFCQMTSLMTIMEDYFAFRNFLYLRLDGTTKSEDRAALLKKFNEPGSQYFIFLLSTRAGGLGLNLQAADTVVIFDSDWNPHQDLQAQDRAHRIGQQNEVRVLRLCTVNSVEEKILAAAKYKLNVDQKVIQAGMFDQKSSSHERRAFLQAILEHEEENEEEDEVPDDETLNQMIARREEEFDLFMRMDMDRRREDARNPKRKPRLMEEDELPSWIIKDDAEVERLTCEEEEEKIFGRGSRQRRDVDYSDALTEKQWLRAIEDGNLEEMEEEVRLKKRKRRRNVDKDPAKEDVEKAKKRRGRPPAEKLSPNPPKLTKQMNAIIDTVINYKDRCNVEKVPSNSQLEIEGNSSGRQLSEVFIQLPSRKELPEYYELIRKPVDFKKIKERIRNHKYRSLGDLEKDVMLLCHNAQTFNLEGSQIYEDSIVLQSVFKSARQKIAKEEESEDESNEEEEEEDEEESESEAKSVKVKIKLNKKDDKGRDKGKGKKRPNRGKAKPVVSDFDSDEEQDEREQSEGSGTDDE

Row | BRM Max % Inhibition (BRM) [%] | IC50 (BRM) [µM] | IC50 (BRG-1) [µM] | Emax (BRG-1) [%] | BRG1 Max % Inhibition (BRG-1) [%] | Compound
1 | >95 | < 0.1 | 0.1 to 1 | > 95 |  | C[C@@H]1CN(c2cccc(-c3csc(NC(=O)CNC(=O)c4ccc(Cl)c(C(C)(C)CO)c4)n3)c2)C[C@H](C)O1 [Compound 244, 4-chloro-N-[2-[[4-[3-[(cis)-2,6-dimethylmorpholin-4-yl]phenyl]thiazol-2-yl]amino]-2-oxo-ethyl]-3-(2-hydroxy-1,1-dimethyl-ethyl)benzamide]
2 | >95 | 0.1 to 1 | 0.1 to 1 | > 80 |  | CC(C)(CO)c1cccc(C(=O)NCC(=O)Nc2nc(-c3cccc(N4CCC(O)CC4)c3)cs2)c1 [Compound 247, 3-(2-hydroxy-1,1-dimethyl-ethyl)-N-[2-[[4-[3-(4-hydroxy-1-piperidyl)phenyl]thiazol-2-yl]amino]-2-oxo-ethyl]benzamide]
3 | >60 | 1 to 5 | > 5 | > 30 |  | C[C@@H]1CN(c2cccc(-c3csc(NC(=O)CNC(=O)c4cccc5c4OCC[C@]5(C)CO)n3)c2)C[C@H](C)O1 [Compound 252, (S)-N-(2-((4-(3-((cis)-2,6-dimethylmorpholino)phenyl)thiazol-2-yl)amino)-2-oxoethyl)-4-(hydroxymethyl)-4-methylchroman-8-carboxamide]
4 | >90 | 1 to 5 | 1 to 5 | > 50 |  | C[C@@H]1CN(c2cccc(-c3csc(NC(=O)CNC(=O)c4cnc5c(c4)[C@@](C)(C#N)CC5)n3)c2)C[C@H](C)O1 [Compound 253, (S)-5-cyano-N-(2-((4-(3-((cis)-2,6-dimethylmorpholino)phenyl)thiazol-2-yl)amino)-2-oxoethyl)-5-methyl-6,7-dihydro-5H-cyclopenta[b]pyridine-3-carboxamide]
5 | >95 | < 0.1 | < 0.1 | > 95 |  | C[C@@H]1CN(c2cccc(-c3csc(NC(=O)CNC(=O)c4ccc5c(c4)[C@](C)(C#N)COC5)n3)c2)C[C@H](C)O1 [Compound 254, (R)-4-cyano-N-(2-((4-(3-((cis)-2,6-dimethylmorpholino)phenyl)thiazol-2-yl)amino)-2-oxoethyl)-4-methylisochroman-6-carboxamide]
6 | >70 | 1 to 5 | > 5 | > 40 |  | C[C@@H]1CN(c2cccc(-c3csc(NC(=O)CNC(=O)c4ccc5c(c4)[C@@](C)(C#N)CCO5)n3)c2)C[C@H](C)O1 [Compound 255, (4S)-4-cyano-N-[2-[[4-[3-[(cis)-2,6-dimethylmorpholin-4-yl]phenyl]thiazol-2-yl]amino]-2-oxo-ethyl]-4-methyl-chromane-6-carboxamide]
7 | >60 | 1 to 5 | > 5 | < 30 |  | C[C@@H]1CN(c2cccc(-c3csc(NC(=O)CNC(=O)c4ccc5c(c4)[C@]4(CCC[C@H]4O)CC5)n3)c2)C[C@H](C)O1 [Compound 256, (1S,2R)-N-(2-((4-(3-((cis)-2,6-dimethylmorpholino)phenyl)thiazol-2-yl)amino)-2-oxoethyl)-2-hydroxy-2′,3′-dihydrospiro[cyclopentane-1,1′-indene]-6′-carboxamide]
8 | >70 | 1 to 5 | > 5 | > 30 |  | Cn1cnc2ccc(-c3csc(NC(=O)CNC(=O)c4ccc5c(c4)[C@@](C)(CO)CC5)n3)cc21 [Compound 257, (S)-3-(hydroxymethyl)-3-methyl-N-(2-((4-(1-methyl-1H-benzo[d]imidazol-6-yl)thiazol-2-yl)amino)-2-oxoethyl)-2,3-dihydro-1H-indene-5-carboxamide]
9 | >50 | 1 to 5 | > 5 |  | <30 | C[C@]1(CO)CCc2ccc(C(=O)NCC(=O)Nc3nc(-c4ccn5ccnc5c4)cs3)cc21 [Compound 259, (S)-3-(hydroxymethyl)-N-(2-((4-(imidazo[1,2-a]pyridin-7-yl)thiazol-2-yl)amino)-2-oxoethyl)-3-methyl-2,3-dihydro-1H-indene-5-carboxamide]
10 | >60 | 1 to 5 | > 5 | > 30 |  | CN1C(=O)CCc2ccc(-c3csc(NC(=O)CNC(=O)c4ccc5c(c4)[C@@](C)(CO)CC5)n3)cc21 [Compound 260, (S)-3-(hydroxymethyl)-3-methyl-N-(2-((4-(1-methyl-2-oxo-1,2,3,4-tetrahydroquinolin-7-yl)thiazol-2-yl)amino)-2-oxoethyl)-2,3-dihydro-1H-indene-5-carboxamide]
11 | >60 | 1 to 5 | > 5 | > 30 |  | Cn1ncc2ccc(-c3csc(NC(=O)CNC(=O)c4ccc5c(c4)[C@@](C)(CO)CC5)n3)cc21 [Compound 261, (S)-3-(hydroxymethyl)-3-methyl-N-(2-((4-(1-methyl-1H-indazol-6-yl)thiazol-2-yl)amino)-2-oxoethyl)-2,3-dihydro-1H-indene-5-carboxamide]
12 | >80 | 1 to 5 | 1 to 5 | > 50 |  | C[C@@H]1CN(c2cccc(-c3csc(NC(=O)CNC(=O)c4ccc5c(c4)[C@@](C)(C#N)CC5)n3)n2)C[C@H](C)O1 [Compound 262, (S)-3-cyano-N-(2-((4-(6-((cis)-2,6-dimethylmorpholino)pyridin-2-yl)thiazol-2-yl)amino)-2-oxoethyl)-3-methyl-2,3-dihydro-1H-indene-5-carboxamide]

More lines, now with the values behind:

Row | Compound | BRM Max % Inhibition (BRM) [%] | IC50 (BRM) [µM] | IC50 (BRG-1) [µM] | Emax (BRG-1) [%] | BRG1 Max % Inhibition (BRG-1) [%]
13 | Cc1cc(-c2cccc(-c3csc(NC(=O)CNC(=O)c4cc(C)c(C)c(C(C)(C)CN)c4)n3)c2)cc(C)n1 [Compound 245, 3-(2-amino-1,1-dimethyl-ethyl)-N-[2-[[4-[3-(2,6-dimethyl-4-pyridyl)phenyl]thiazol-2-yl]amino]-2-oxo-ethyl]-4,5-dimethyl-benzamide] | >95 | < 0.1 | 1 to 5 | > 70 | 
14 | C[Si](C)(C)c1cccc(C(=O)NCC(=O)Nc2nc(-c3cccc(-c4ccncc4)c3)cs2)c1 [Compound 248, N-[2-oxo-2-[[4-[3-(4-pyridyl)phenyl]thiazol-2-yl]amino]ethyl]-3-trimethylsilyl-benzamide] | >40 | 0.1 to 1 | 1 to 5 | > 30 | 
15 | Cc1nccc(-c2cccc(-c3csc(NC(=O)CNC(=O)c4ccc5c(c4)[C@](C)(C#N)CC5)n3)n2)n1 [Compound 249, (3R)-3-cyano-3-methyl-N-[2-[[4-[6-(2-methylpyrimidin-4-yl)-2-pyridyl]thiazol-2-yl]amino]-2-oxo-ethyl]indane-5-carboxamide] | >95 | < 0.1 | < 0.1 | > 95 | 
16 | CC1(C)c2cc(C(=O)NCC(=O)Nc3nc(-c4cccc(-c5ccncc5)c4)cs3)ccc2C[C@@H]1N [Compound 250, (S)-2-amino-3,3-dimethyl-N-(2-oxo-2-((4-(3-(pyridin-4-yl)phenyl)thiazol-2-yl)amino)ethyl)-2,3-dihydro-1H-indene-5-carboxamide] | >70 | 1 to 5 | > 5 | > 50 | 
17 | Cc1cc(-c2cccc(-c3csc(NC(=O)CNC(=O)c4ccc5c(c4)[C@@](C)(CN)CCC5)n3)c2)cc(C)n1 [Compound 251, (4S)-4-(aminomethyl)-N-[2-[[4-[3-(2,6-dimethyl-4-pyridyl)phenyl]thiazol-2-yl]amino]-2-oxo-ethyl]-4-methyl-tetralin-6-carboxamide] | >50 | 1 to 5 | > 5 | < 30 | 
18 | CN1CCc2ccc(-c3csc(NC(=O)CNC(=O)c4ccc5c(c4)[C@@](C)(CO)CC5)n3)cc2C1=O [Compound 258, (S)-3-(hydroxymethyl)-3-methyl-N-(2-((4-(2-methyl-1-oxo-1,2,3,4-tetrahydroisoquinolin-7-yl)thiazol-2-yl)amino)-2-oxoethyl)-2,3-dihydro-1H-indene-5-carboxamide] | >80 | 0.1 to 1 | 1 to 5 |  | >60
19 | Cc1cnc(O)c(-c2cccc(-c3csc(NC(=O)CNC(=O)c4ccc5c(c4)[C@](C)(CO)CC5)n3)n2)c1 [Compound 263, (R)-N-(2-((4-(2′-hydroxy-5′-methyl-[2,3′-bipyridin]-6-yl)thiazol-2-yl)amino)-2-oxoethyl)-3-(hydroxymethyl)-3-methyl-2,3-dihydro-1H-indene-5-carboxamide] | >80 | 0.1 to 1 | 1 to 5 | > 40 | 
20 | C[C@@]1(CO)CCc2ccc(C(=O)NCC(=O)Nc3nc(-c4cccc(-c5cccnc5O)n4)cs3)cc21 [Compound 264, (R)-N-(2-((4-(2′-hydroxy-[2,3′-bipyridin]-6-yl)thiazol-2-yl)amino)-2-oxoethyl)-3-(hydroxymethyl)-3-methyl-2,3-dihydro-1H-indene-5-carboxamide] | >70 | 1 to 5 | > 5 | < 30 | 
21 | Cn1ccc(-c2cccc(-c3csc(NC(=O)CNC(=O)c4ccc5c(c4)[C@](C)(CO)CC5)n3)n2)n1 [Compound 265, (3R)-3-(hydroxymethyl)-3-methyl-N-[2-[[4-[6-(1-methylpyrazol-3-yl)-2-pyridyl]thiazol-2-yl]amino]-2-oxo-ethyl]indane-5-carboxamide] | >70 | 1 to 5 | > 5 | > 30 | 
22 | Cc1cc(-c2cccc(-c3csc(NC(=O)CNC(=O)c4ccc5c(c4)[C@@](C)(C#N)CC5)n3)n2)ncn1 [Compound 266, (3S)-3-cyano-3-methyl-N-[2-[[4-[6-(6-methylpyrimidin-4-yl)-2-pyridyl]thiazol-2-yl]amino]-2-oxo-ethyl]indane-5-carboxamide] | >60 | 1 to 5 | > 5 | > 30 | 
